Results on one substance are retold here after paper PMC11091117, “A fluorescently-tagged tick kinin neuropeptide triggers peristalsis and labels tick midgut muscles” (Scientific Reports, 2024).

The test system of assay [1] is tick kinin receptor (recombinant R. microplus receptor, CHO-K1 BMLK3 cells). Description: Cellular end-point fluorescence calcium mobilization assay, BMLK3 cells. It is filed as cell-based, Rhipicephalus microplus. From the text:
Three peptides were used in this study. These included: 1) the ligand for the endogenous tick kinin receptor from Rhipicephalus sanguineus, Rhisa-kinin 8 peptide of sequence GTGEDQAFSPWGamide (Rhisa-K-8; RK8; of identical sequence to Rhimi-K-8 in Rhipicephalus microplus)[48], 2) the same peptide but fluorescently labeled at the N-terminus with tetramethylrhodamine (TMR) a red fluorescent dye, designated TMR-Rhisa-K-8 (TMR-RK8), and 3) a labeled peptide synthesized with the scrambled sequence of the kinin ligand, designated TMR-Scrambled. The sequence of TMR-RK8 was TMR-C-GTGEDQAFSPWGamide). The TMR-Scrambled kinin (TMR-C-GTQWGPGFEADSamide) served as a negative control for tissue labeling. All peptides were custom-synthesized and purchased from GenScript (Piscataway, NJ, USA) with a purity of ≥ 95% and the cysteine in bold in both sequences was added to attach the label. Experiments were replicated with independently synthesized batches (4 mg each) of labeled and unlabeled peptides, for reproducibility. Unlabeled RK8 was used as a competitive ligand to verify target-specific binding of the labeled TMR-RK8 (see Ligand Competition Assay). For cell assays, the peptide stock solutions (100 µM) were made in 1% dimethyl sulfoxide (DMSO) in Hank’s balanced salt solution (HBSS, Thermo Fisher, Waltham, USA). For fluorescent cell labeling, peptide working solutions (10 µM) were prepared in HBSS from stock solutions. For assays on the midgut, peptides were solubilized and diluted in a tick physiological saline consisting of 140 mM NaCl, 5 mM KCl, 1 mM MgCl2, 5 mM CaCl2, 4 mM NaHCO3, and 5 mM HEPES, pH 7.2[49].
The tick kinin receptor is stably expressed in the recombinant CHO-K1 cell line designated BMLK3 (Boophilus microplus leucokinin receptor 3) that was constructed and selected as described by Holmes, et al.[47]. The CHO-K1 cells had been obtained from the American Type Culture Collection (ATCC) for transfection with the expression construct. This cell line has been kept in the laboratory since 2003. Cells that were transfected only with an empty plasmid are referred to as “vector-only” (V/O) cells and were used as a negative control. Before all experiments, the BMLK3 cell line or V/O cells were separately cultured in T-75 flasks with selective medium (F-12 K medium containing 10% FBS and 800 μgmL^−1 of G418 sulfate) for one to two passages in a humidified incubator at 37 °C and 5% CO2.
A fluorescence-based intracellular calcium mobilization end-point assay described by Xiong, et al.[50] was used to confirm the activity of the TMR-labeled RK8 peptide on a cell line expressing the tick kinin receptor. For this, BMLK3 and V/O cells were cultured in F-12 K medium (1% FBS and 400 μgmL^−1- of G418 Sulfate). The cells were seeded in a 96-well plate with 20,000 cells per well and incubated overnight at 37 °C and 5% CO2. The next morning, cells were prepared for the assay following the manufacturer’s instructions for the Fluo-8 Calcium Flux Assay Kit – NoWash (Abcam, Cambridge, United Kingdom). The F-12 K medium in the plate was removed by inverting the plate and gently blotting on paper towels. […] The calcium fluorescence signal was detected by a CLARIOstar (BMG LABTECH, Chicago, IL, United States) plate reader set to read at the fluorescence plate-mode with excitation and emission wavelengths of 490 and 525 nm at 29 °C. Calcium responses were read immediately after the addition of 10 µL of either TMR-RK8, unlabeled RK8, or blank solvent (1% DMSO in HBSS). […]
On the technique in general: Calcium assays in cells follow changes in intracellular calcium, usually with a dye or a luminescent sensor.

Assay [2] shares this test system. Description: Confocal visualization of recombinant kinin receptor on live BMLK3 cells with fluorescently labeled kinin peptide. It is filed as binding, Rhipicephalus microplus. The text has this:
Three peptides were used in this study. These included: 1) the ligand for the endogenous tick kinin receptor from Rhipicephalus sanguineus, Rhisa-kinin 8 peptide of sequence GTGEDQAFSPWGamide (Rhisa-K-8; RK8; of identical sequence to Rhimi-K-8 in Rhipicephalus microplus)[48], 2) the same peptide but fluorescently labeled at the N-terminus with tetramethylrhodamine (TMR) a red fluorescent dye, designated TMR-Rhisa-K-8 (TMR-RK8), and 3) a labeled peptide synthesized with the scrambled sequence of the kinin ligand, designated TMR-Scrambled. The sequence of TMR-RK8 was TMR-C-GTGEDQAFSPWGamide). The TMR-Scrambled kinin (TMR-C-GTQWGPGFEADSamide) served as a negative control for tissue labeling. […]
The BMLK3 and V/O cells (5000–10,000 cells) were seeded separately in 200 µL selective media onto the two chambers of the cover glass (Lab-Tek Chambered Coverglass, 4.2 cm^2 area, #1.0 German borosilicate glass, sterile, Cat # 155,380, Thermo Fisher Scientific Inc., Walthams, MA) and grown in the incubator overnight at 37 °C and 5% CO2. The next day, cells would be ready for fluorescent labeling: the selective media was replaced with 200 µL HBSS to rinse the cells. […] Images were analyzed and computer-colored using Fiji/ImageJ (National Institutes of Health, Bethesda, MD). […]

Entries after “also recorded” stand apart in the source; their conditions may differ.

Take TMR-C-GTGEDQAFSPWGamide [TMR-RK8]: in assay [1] (10 nM to 10 μM (four concentrations), 1% DMSO in HBSS, Fluo-8, Ex 490/Em 525 nm, 29 °C, read 60 s at 1 s intervals, average raw fluorescence units of 4 technical replicates, simple linear regression), the “intracellular calcium fluorescence response / receptor activation (in words)” value is “activated and labeled the recombinant R. microplus receptor expressed in CHO-K1 cells; also recorded: elicited a dose-dependent intracellular calcium fluorescence response; also recorded: functionally activates the tick recombinant kinin receptor in BMLK3 cells; also recorded: activated the receptor in a dose response fashion, similarly to the unlabeled RK8 peptide”. The “fluorescence units at highest concentration, TMR-RK8 compared with RK8 (in words)” value in assay [1] (highest concentration assayed 10 µM, Fluo-8, 4 technical replicates) is “maximal and similar for the highest concentration assayed of 10 µM”. For the same substance, the “effect of TMR label on peptide bioactivity (in words)” value in assay [1] (overlap of confidence intervals of cell responses to TMR-RK8 and RK8) is recorded as “the TMR fluorescent label did not impair peptide bioactivity”. Besides, in assay [2] (1 µM TMR-RK8, confocal Leica SP8 with DIC, 1.1 µm Z-step, 13 slices), the “labeling of BMLK3 cells, Fig. S2 (in words)” value is reported as “observed in most cells”. Besides, the “labeling of BMLK3 cells (in words)” value in assay [2] (live BMLK3 cells, 10 µM labeled peptide, 1 min, HBSS, confocal Leica SP8, Ex 542 nm, Em 572–759 nm) is listed as “showed specific labeling; also recorded: observed only in BMLK3 cells”.
